Key:
[1] = Half-life at initial concentration of 5*10e-5 M in CEM cell extract; format: ADME, CCRF-CEM; conditions: human
CCRF-CEM [2] = assay: Compound was evaluated for anti-HIV activity against thymidine kinase deficient CEM cell line infected with HIV-1; format: functional, cell-based; conditions: Homo sapiens
CCRF-CEM [3] = assay: Compound was evaluated for cytotoxicity against thymidine kinase deficient CEM cell line infected with HIV-1; format: functional; conditions: Homo sapiens

| SMILES | half-life [1] | EC50 (CCRF-CEM [2]) | CC50 (CCRF-CEM [3]) |
| --- | --- | --- | --- |
| COC(=O)[C@H](C)NP(=O)(OC[C@H]1O[C@@H](n2cc(C)c(=O)[nH]c2=O)C[C@@H]1N=[N+]=[N-])Oc1ccccc1 (some centres undefined) | 2.5 h | 4.1 µM | 97 µM |
| COC(=O)CCNP(=O)(OCC1OC(n2cc(C)c(=O)[nH]c2=O)CC1N=[N+]=[N-])Oc1ccccc1 (centres undefined) | > 8 h | > 100 µM | > 100 µM |
| CC(=O)OCCNP(=O)(OCC1OC(n2cc(C)c(=O)[nH]c2=O)CC1N=[N+]=[N-])Oc1ccccc1 (centres undefined) | 1.5 h | > 10 µM | > 10 µM |
| COC(=O)CNP(=O)(OCC1OC(n2cc(C)c(=O)[nH]c2=O)CC1N=[N+]=[N-])Oc1ccccc1 (centres undefined) | 21 h | 63 µM | > 100 µM |
| Cc1cn([C@H]2C[C@H](N=[N+]=[N-])[C@@H](CO)O2)c(=O)[nH]c1=O [ZIDOVUDINE] |  | > 100 µM | > 100 µM |

From ChEMBL document CHEMBL1130803, “Anti-HIV pronucleotides: decomposition pathways and correlation with biological activities” (Bioorg Med Chem Lett, 1998)
